In BindingDB's records for doi:10.1021/ml400144e (Riken, 2013) one finds IC50 data, which are given here for 16 molecules.

The structures appear in SMILES notation. Where only a bound is given, the exact number is not on record here.

This experiment concerns the target T1, NF-kappa-B inhibitor alpha (Homo sapiens, UniProt P25963).
T1 sequence (P25963 whole entry): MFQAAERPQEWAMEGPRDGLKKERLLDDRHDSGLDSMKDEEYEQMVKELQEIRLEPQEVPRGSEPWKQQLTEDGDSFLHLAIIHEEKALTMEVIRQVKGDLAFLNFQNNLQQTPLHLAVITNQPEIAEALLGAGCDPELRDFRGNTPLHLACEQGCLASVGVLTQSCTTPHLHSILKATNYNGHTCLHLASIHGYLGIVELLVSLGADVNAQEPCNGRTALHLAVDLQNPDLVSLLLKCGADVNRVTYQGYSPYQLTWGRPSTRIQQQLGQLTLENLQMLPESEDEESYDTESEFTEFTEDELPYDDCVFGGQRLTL
Nature of the experiment: Inhibition of TNFalpha-induced IkappaBalpha (unknown origin) phosphorylation expressed in human HeLa cells pretreated 30 mins before TNFalpha addition measured up to 120 mins by ELISA in presence of proteasome inhibitor MG-132. A general note: In an ELISA, binding on a coated surface is turned into a signal by an enzyme label.
Consider `CC1=C(C)C(=O)O[C@@H]([C@](C)(O)[C@H]2CC[C@@]3(O)[C@@H]4CC=C5CC=CC(=O)[C@]5(C)[C@H]4CC[C@]23C)C1`, for which the IC50 (commonly the midpoint of a concentration-inhibition curve) was greater than 50 µM.

`CC1=C(C)C(=O)O[C@@H]([C@](C)(O)[C@]2(O)CC[C@@]3(O)[C@@H]4CC=C5CC=CC(=O)[C@]5(C)[C@H]4CC[C@]23C)C1` [WITHANOLIDE F]: the half-maximal inhibitory concentration (IC50) was greater than 50 µM.

In the case of `C[C@]12C(=O)C=CCC1=CC[C@@H]1[C@@H]2CC[C@]2(O)C(=O)O[C@@]3(C)[C@H]4C[C@@](C)([C@@H]5C(=O)[C@]1(O)O[C@@]532)[C@](C)(O)C(=O)O4`, the IC50 was greater than 50 µM.

As for `C[C@@]12C[C@H]3OC(=O)[C@]1(O)CO[C@]14O[C@@]5([C@H]2C1=O)[C@@]3(C)OC(=O)[C@@]5(O)CC[C@H]1[C@H]4C[C@H]2O[C@]23CC=CC(=O)[C@]13C` [25-HYDROXY PHYSALIN F], the IC50 is 30.1 µM.

`C[C@@]12C[C@H]3OC(=O)[C@@H]1CO[C@]14O[C@]5([C@H]2C1=O)[C@@](O)(CC[C@H]1[C@H]4C[C@H]2O[C@]24CC=CC(=O)[C@]14C)C(=O)O[C@@]35C` [PHYSALIN F]: the IC50 was 27.1 µM.

For the molecule `C[C@@H]1C(=O)O[C@@H]2C[C@@]1(C)[C@@H]1C(=O)[C@]3(O)O[C@]14[C@@]2(C)OC(=O)[C@@]4(O)CC[C@H]1[C@H]3[C@H](O)C=C2CC=CC(=O)[C@@]21C` [PHYSALIN O], the IC50 was greater than 50 µM.

Regarding `C[C@@]12C[C@H]3OC(=O)[C@@H]1CO[C@@]14O[C@]5(C2C1=O)[C@@](O)(CC[C@H]1[C@H]4C[C@@H]2O[C@@]24CC=CC(=O)[C@]14C)C(=O)O[C@@]35C` [PHYSALIN J], the IC50 is greater than 50 µM.

With `C=C1C(=O)O[C@@H]2C[C@@]1(C)[C@@H]1C(=O)[C@]3(O)O[C@]14[C@@]2(C)OC(=O)[C@@]4(O)CC[C@H]1[C@H]3CC=C2CC=CC(=O)[C@@]21C`, the IC50 came to 26.2 µM.

In the case of `CC1=C(C)C(=O)O[C@@H]([C@](C)(O)C2=CC[C@@]3(O)[C@@H]4CC=C5CC=CC(=O)[C@]5(C)[C@H]4CC[C@]23C)C1`, the 50% inhibitory concentration (IC50) is greater than 50 µM.

On to `C[C@H]1C(=O)OC[C@H]1C[C@@H](O)[C@](C)(O)[C@@]1(O)CC[C@@]2(O)[C@@H]3CC=C4CC=CC(=O)[C@]4(C)[C@H]3CC[C@]12C`, for which the IC50 is greater than 50 µM.

Consider `CC1=C(C)C(=O)O[C@@H]([C@](C)(O)[C@]2(O)CC[C@@]3(O)[C@@H]4C[C@H]5O[C@]56CC=CC(=O)[C@]6(C)[C@H]4CC[C@]23C)C1` [WITHANOLIDE E], for which the IC50 is 18 µM.

As to `C[C@@]12C[C@H]3OC(=O)[C@]1(O)CO[C@]14O[C@@]5([C@H]2C1=O)[C@@]3(C)OC(=O)[C@@]5(O)CC[C@H]1[C@H]4C[C@@H]2O[C@@]23CC=CC(=O)[C@]13C` [25-HYDROXY PHYSALIN J], the IC50 is greater than 50 µM.

`C[C@]12C(=O)C=CCC1=CC[C@@H]1[C@@H]2CC[C@]2(O)C(=O)O[C@@]3(C)[C@H]4C[C@]5(C)[C@@H](CO[C@@]16O[C@@]32[C@H]5C6=O)C(=O)O4` [NSC-287088]: the IC50 was determined as 37.5 µM.

As to `C[C@]12C(=O)C=CCC1=C[C@@H](O)[C@@H]1[C@@H]2CC[C@@]2(O)C(=O)O[C@@]3(C)[C@H]4C[C@]5(C)[C@@H](CO[C@@]16O[C@]23[C@H]5C6=O)C(=O)O4`, the half-maximal inhibitory concentration (IC50) is greater than 50 µM.

Regarding `C=C1C(=O)O[C@@H]2C[C@@]1(C)[C@@H]1C(=O)[C@]3(O)O[C@]14[C@@]2(C)OC(=O)[C@@]4(O)CC[C@H]1[C@H]3[C@H](O)C=C2CC=CC(=O)[C@@]21C` [PHYSALIN A], the IC50 is greater than 50 µM.

Take `C[C@H]1C(=O)OC[C@H]1C[C@@H](O)[C@](C)(O)[C@]1(O)CC[C@@]2(O)[C@@H]3CC=C4CC=CC(=O)[C@]4(C)[C@H]3CC[C@]12C`: the IC50 is greater than 50 µM.
